# Experimental data as given in patent US9290487B2, “Pharmaceutical composition for treating diabetes” (Ajinomoto Co., Inc., priority 2011, dated 2016).
# Target: PPAR-α (Homo sapiens (Human), UniProt Q07869)
# Experiment: Measurement of PPAR-α activity (GAL4 luciferase reporter assay in CV-1 cells)
# Format: cell-based
# Details: 100(A/B), A = maximum activity at 3, 10, 30 and 100 μM, B = compound in WO/2011/058154 at 100 μM, read-out: PPARα relative fold induction (%)
# Procedure: The PPAR-α activity was measured according to the published article (THE JOURNAL OF BIOLOGICAL CHEMISTRY Vol. 270, No. 22, 12953-12956, 1995).
# Plasmids used for the PPAR-α activity measurement were constructed as follows. A luciferase expression plasmid (UASx5-TK-Luc) used was obtained by introducing a sequence, in which five yeast GAL4-binding sequences are linked in tandem, upstream of a thymidine kinase promoter of pTAL-Luc (Takara Bio Inc., 6252-1). A PPAR-α receptor expression plasmid (hGR-GAL4-hPPARα) used was obtained by introducing a human GR N-terminal region (1-76 aa), a yeast GAL4 DNA-binding region (1-147 aa), and a PPARα ligand-binding region (167-468 aa) between a Not I site and a Sal I site of pExchange-1 Core Vector (Invitrogen Corporation, 211176).
# A reporter assay was conducted by the following method using Cercopithecus aethiops kidney-derived CV-1 cells. The CV-1 cells were seeded in a 96-well plate (Thermo Fisher Scientific Inc., 4938) at 2×10^4 cells/well using a 10% FBS-containing DMEM (Nacalai Tesque, Inc., 0845874) medium. After culturing under conditions of 37° C. and 5% CO2 for 2 hours, the plasmids were transfected. Lipofectamine LTX (Invitrogen Corporation, 15338-100) was used for the transfection according to the attached manual. The plasmid solution was prepared by adding a mixture solution of the luciferase expression plasmid and the PPAR-α receptor expression plasmid to OPTI-MEM I (Invitrogen Corporation, 11058-021). After the transfection was conducted, the test compound was added, and cultured at 37° C. in the presence of 5% CO2 for 18 to 20 hours. After the culturing was completed, the luciferase activity was measured with Luminescensor JNR (ATTO) using Bright-Glo (Promega Corporation, E2620).
# The fold induction of PPAR-α by the test compounds was calculated by the following method. For the compounds of Examples 1, 4, 5, 7, and 9, PPAR-α relative fold induction (%) was defined as 100 (A/B), where A represents the maximum value of PPAR-α activities with the test compound at 0.3 μM, 1 μM, 3 μM, 10 μM, 30 μM, and 100 μM, and B represents the PPAR-α activity with the compound in WO/2011/058154 at 100 μM. For the compounds of Examples 11, 15, 19, 22, 26, and 32, PPAR-α relative fold induction (%) was defined as 100 (A/B), where A represents the maximum value of PPAR-α activities with the test compound at 3 μM, 10 μM, 30 μM, and 100 μM, and B represents the PPAR-α activity with the compound in WO/2011/058154 at 100 μM.
# PPAR-α, sequence (Q07869 167-468): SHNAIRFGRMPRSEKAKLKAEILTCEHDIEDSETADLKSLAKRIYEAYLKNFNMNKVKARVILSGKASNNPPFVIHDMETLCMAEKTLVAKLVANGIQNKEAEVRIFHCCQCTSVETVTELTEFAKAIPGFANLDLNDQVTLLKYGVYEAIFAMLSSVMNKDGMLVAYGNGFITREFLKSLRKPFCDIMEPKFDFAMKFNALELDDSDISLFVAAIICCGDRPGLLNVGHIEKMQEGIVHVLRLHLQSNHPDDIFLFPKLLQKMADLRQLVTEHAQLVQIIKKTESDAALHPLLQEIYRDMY
row,Emax [%],Compound
1,18,O=C(O)[C@@H]1CCCN1C(=O)c1cccc(COc2ccc(-c3cc(F)cc4c3OCC=C4)cc2)c1 [compound of Ex. 11]

# Target: human GYS1 (glycogen synthase) (Homo sapiens (Human), UniProt P13807)
# Sequence (P13807 whole entry): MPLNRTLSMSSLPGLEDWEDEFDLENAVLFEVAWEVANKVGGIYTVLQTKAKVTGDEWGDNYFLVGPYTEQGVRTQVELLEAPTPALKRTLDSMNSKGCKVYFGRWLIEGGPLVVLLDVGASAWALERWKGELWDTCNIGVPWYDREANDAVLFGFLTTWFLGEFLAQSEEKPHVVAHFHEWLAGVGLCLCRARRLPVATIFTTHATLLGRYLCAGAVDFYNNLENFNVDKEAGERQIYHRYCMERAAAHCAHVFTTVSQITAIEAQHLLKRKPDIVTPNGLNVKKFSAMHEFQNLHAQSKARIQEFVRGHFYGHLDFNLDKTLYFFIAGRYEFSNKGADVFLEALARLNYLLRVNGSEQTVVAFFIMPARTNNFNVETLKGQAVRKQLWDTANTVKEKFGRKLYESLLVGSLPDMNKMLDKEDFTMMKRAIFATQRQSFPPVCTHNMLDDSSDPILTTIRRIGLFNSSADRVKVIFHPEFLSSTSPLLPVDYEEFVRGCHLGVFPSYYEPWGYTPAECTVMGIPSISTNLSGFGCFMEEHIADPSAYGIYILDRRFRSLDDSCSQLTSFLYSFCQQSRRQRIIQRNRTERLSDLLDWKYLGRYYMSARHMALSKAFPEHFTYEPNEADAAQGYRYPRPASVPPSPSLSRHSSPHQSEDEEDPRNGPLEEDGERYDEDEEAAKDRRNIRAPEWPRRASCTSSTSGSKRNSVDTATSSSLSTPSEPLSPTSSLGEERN
# Experiment: Measurement of glycogen synthase activity (coupled pyruvate kinase/lactate dehydrogenase assay, absorbance at 340 nm)
# Format: biochemical
# Details: concentration inducing relative activity of 50% (100% = Ex. 1 of WO/2011/058154 at 10 μM); incubation at 37° C. for 20 minutes (Examples 11 to 75)
# Procedure: A human GYS1 expression plasmid (pCDNA3.1(+)-hGYS1) was constructed by the following method. Using a human skeletal muscle cDNA of Human MTC Panel I (Takara Bio Inc., 636742) as a template, a human GYS1 gene was amplified by a PCR method using cloning primers (Forward Primer: ATGCCTTTAAACCGCAC (SEQ ID NO: 1), Reverse Primer: TTAGTTACGCTCCTCGC (SEQ ID NO: 2)). Using the amplified human GYS1 sequence as a template, a restriction enzyme sequence was added by a PCR method using sub-cloning primers (Forward Primer: […] (SEQ ID NO: 3), Reverse Primer: […] (SEQ ID NO: 4)). Then, the human GYS1 gene was introduced between a Xho I site and a Xba I site of pCDNA3.1(+) (Invitrogen Corporation, V790-20).
# Glycogen synthase was prepared by the following method according to the published article (THE JOURNAL OF BIOLOGICAL CHEMISTRY Vol. 269, No. 41, 25534-25542, 1994). Human kidney-derived HEK293T cells were seeded in a dish (Thermo Fisher Scientific Inc., 168381) using a 10% FBS-containing DMEM (Nacalai Tesque, Inc., 0845874) medium, and cultured overnight. Then, using Lipofectamine LTX (Invitrogen Corporation, 15338-100), the human GYS1 expression vector was transfected according to the attached manual. After culturing under conditions of 37° C. and 5% CO2 for 2 days, the resultant was dissolved in a lysis buffer (50 mM Tris-HCl (pH 8.0), 10 mM EDTA, 2 mM EGTA, 100 mM NaF, 1 mM PMSF, 1 mM DTT, 1× Complete (Roche Diagnostics K. K., 1873580)), homogenized, and then centrifuged at 16000×g at 4° C. for 15 minutes. To the precipitated fraction, a lysis buffer was added. Re-dissolved fractions were used as glycogen synthase for evaluation.
# The glycogen synthase activity was measured by the following method. To a polystyrene 96-well plate, a solution containing 30 mM glycylglycine (pH 7.3), 40 mM KCl, 20 mM MgCl2, 9.2% DMSO containing one of the test compounds at various concentrations, and 10 mM glucose-6-phosphate (Sigma-Aldrich Corporation, G7879) was added by 12 μL/well.
# Next, a substrate solution containing 30 mM glycylglycine (pH 7.3), 4.3 mg/mL of glycogen (Sigma-Aldrich Corporation, G8876), 21.6 mM UDP-glucose (Sigma-Aldrich Corporation, U4625), 21.6 mM phosphoenolpyruvic acid (Sigma-Aldrich Corporation, P0564), and 4.05 mM NADH (Sigma-Aldrich Corporation, N8129) was added by 18 μL/well.
# Further, an enzyme solution containing 50 mM Tris-HCl (pH 8.0), 27 mM DTT (Nacalai Tesque, Inc., 14128-04), 0.2 mg/mL of bovine serum albumin, 0.17 mg/mL of the glycogen synthase, 1.5 μL of a pyruvate kinase/lactate dehydrogenase solution (Sigma-Aldrich Corporation, P0294) was added by 18 μL/well to prepare a reaction solution. After the reaction solution was incubated (at 30° C. for 25 minutes for Examples 1 to 10, at 37° C. for 20 minutes for Examples 11 to 75), the absorbance at 340 nm was measured using Benchmark Plus (Bio-Rad Laboratories, Inc.).
# The activities of the test compounds were calculated by the following method. The change in the absorbance (ΔA340) was calculated by subtracting the absorbance at 340 nm of the reaction solution containing the compound and DMSO from the absorbance at 340 nm of a reaction solution not containing the compound but containing only DMSO. The ΔA340 of the reaction solution containing the compound of Example 1 in WO/2011/058154 at the final concentration of 10 μM was taken as 100% to calculate the relative activity (%) of the test compounds at various concentrations. EC50 representing the concentration of the compound which induces an increase in the relative activity to 50% was calculated using XLfit (idbs).
row,EC50 [nM],Compound
1,800,"COCc1coc2c(-c3ccc(OCc4cccc(C(=O)N5CCC[C@H]5C(=O)O)c4)cc3)cc(F)c(F)c12 [compound of Ex. 45, 1-[3-({4-[4,5-difluoro-3-(methoxymethyl)-1-benzofuran-7-yl]phenoxy}methyl)benzoyl]-L-proline]"
2,150,"N#CCc1coc2c(-c3ccc(OCc4cccc(C(=O)N5CCC[C@H]5C(=O)O)c4)cc3)cc(F)c(F)c12 [compound of Ex. 46, 1-[3-({4-[3-(cyanomethyl)-4,5-difluoro-1-benzofuran-7-yl]phenoxy}methyl)benzoyl]-L-proline]"
3,150,"C#CCOc1cc(-c2ccc(OCc3cccc(C(=O)N4CCC[C@H]4C(=O)O)c3)cc2)cc(F)c1F [compound of Ex. 47, 1-[3-({[3′,4′-difluoro-5′-(prop-2-yn-1-yloxy)biphenyl-4-yl]oxy}methyl)benzoyl]-L-proline]"
4,120,"N#CCOc1cc(-c2ccc(OCc3cccc(C(=O)N4CCC[C@H]4C(=O)O)c3)cc2)cc(F)c1F [compound of Ex. 48, 1-[3-({[3′-(cyanomethoxy)-4′,5′-difluorobiphenyl-4-yl]oxy}methyl)benzoyl]-L-proline]"
5,260,N#Cc1cc2c(F)c(F)cc(-c3ccc(OCc4cccc(C(=O)N5CCC[C@H]5C(=O)O)c4)cc3)c2o1 [compound of Ex. 54]
6,85,"Cc1csc2c(-c3ccc(OCc4cccc(C(=O)N5CCC[C@H]5C(=O)O)c4)cc3)cc(F)c(F)c12 [compound of Ex. 55, 1-(3-{[4-(4,5-difluoro-3-methyl-1-benzothien-7-yl)phenoxy]methyl}benzoyl)-L-proline]"
7,140,"NC(=NO)c1cc2c(F)c(F)cc(-c3ccc(OCc4cccc(C(=O)N5CCC[C@H]5C(=O)O)c4)cc3)c2o1 [compound of Ex. 57, 1-{3-[(4-{2-[amino(hydroxyimino)methyl]4,5-difluoro-1-benzofuran-7-yl}phenoxy)methyl]benzoyl}-L-proline]"
8,150,"O=C(O)[C@@H]1CCN1C(=O)c1cccc(COc2ccc(-c3cc(F)c(F)c4ccoc34)cc2)c1 [compound of Ex. 59, (2S)-1-(3-{[4-(4,5-difluoro-1-benzofuran-7-yl)phenoxy]methyl}benzoyl)azetidine-2-carboxylic acid]"
9,160,"O=C(O)[C@@H]1CCCN1C(=O)c1cccc(COc2ccc(-c3cc(F)c(F)c4ccoc34)cc2F)c1 [compound of Ex. 60, 1-(3-{[4-(4,5-difluoro-1-benzofuran-7-yl)-2-fluorophenoxy]methyl}benzoyl)-L-proline]"
10,270,"Cc1cc2c(F)c(F)cc(-c3ccc(OCc4cccc(C(=O)N5CCC[C@H]5C(=O)O)c4)cc3)c2s1 [compound of Ex. 62, 1-(3-{[4-(4,5-difluoro-2-methyl-1-benzothien-7-yl)phenoxy]methyl}benzoyl)-L-proline]"
11,220,"C[C@@H](C(=O)O)N(C)C(=O)c1cccc(COc2ccc(-c3cc(F)c(F)c4ccoc34)cc2)c1 [compound of Ex. 63, N-(3-{[4-(4,5-difluoro-1-benzofuran-7-yl)phenoxy]methyl}benzoyl)-N-methyl-L-alanine]"
12,140,"O=C(O)[C@@H]1C=CCN1C(=O)c1cccc(COc2ccc(-c3cc(F)c(F)c4ccoc34)cc2)c1 [compound of Ex. 64, (2S)-1-(3-{[4-(4,5-difluoro-1-benzofuran-7-yl)phenoxy]methyl}benzoyl)-2,5-dihydro-1H-pyrrole-2-carboxylic acid]"
13,590,"N#Cc1cc2c(F)c(F)cc(-c3ccc(OCc4cccc(C(=O)N5CCC[C@H]5C(=O)O)c4)cc3)c2s1 [compound of Ex. 67, 1-(3-{[4-(2-cyano-4,5-difluoro-1-benzothien-7-yl)phenoxy]methyl}benzoyl)-L-proline]"
14,340,"O=C(O)[C@@H]1CSCN1C(=O)c1cccc(COc2ccc(-c3cc(F)c(F)c4ccoc34)cc2)c1 [compound of Ex. 68, (4R)-3-(3-{[4-(4,5-difluoro-1-benzofuran-7-yl)phenoxy]methyl}benzoyl)-1,3-thiazolidine-4-carboxylic acid]"
15,65,"COCc1cc2c(F)c(F)cc(-c3ccc(OCc4cccc(C(=O)N5CCC[C@H]5C(=O)O)c4)cc3)c2o1 [compound of Ex. 73, 1-[3-({4-[4,5-difluoro-2-(methoxymethyl)-1-benzofuran-7-yl]phenoxy}methyl)benzoyl]-L-proline]"
16,200,"COCc1cc2c(F)c(F)cc(-c3ccc(OCc4cccc(C(=O)N5CCC[C@H]5C(=O)O)c4)cc3)c2s1 [compound of Ex. 74, 1-[3-({4-[4,5-difluoro-2-(methoxymethyl)-1-benzothien-7-yl]phenoxy}methyl)benzoyl]-L-proline]"
